Test results published in the NIST ThermoML archive (doi:10.1016/j.jct.2010.08.019).

Assay: xn = mol fraction of the nth substance listed
Conditions: for surface tension liquid-gas: Wilhelmy-plate method; for viscosity / mass density: 101 kPa, Liquid; for viscosity: Falling or rolling sphere viscometry; for mass density: Vibrating tube method

C1CCOCC1 [tetrahydropyran] + CC(C)O
Conditions	mass density [kg/m3]	surface tension liquid-gas [mN/m]	viscosity [mPa·s]
293.15 K, x2 = 0	884.27	27.5	0.86
293.15 K, x2 = 0.0501	879.89	27.2	0.852
293.15 K, x2 = 0.0999	875.5	26.9	0.845
293.15 K, x2 = 0.1499	871.09	26.6	0.849
293.15 K, x2 = 0.2003	866.62	26.3	0.85
293.15 K, x2 = 0.2506	862.13	26	0.855
293.15 K, x2 = 0.2999	857.7	25.7	0.864
293.15 K, x2 = 0.35	853.13	25.4	0.877
293.15 K, x2 = 0.3999	848.52	25	0.899
293.15 K, x2 = 0.4499	843.87	24.7	0.922
293.15 K, x2 = 0.5001	839.07	24.4	0.947
293.15 K, x2 = 0.5502	834.22	24	0.983
293.15 K, x2 = 0.6001	829.28	23.7	1.032
293.15 K, x2 = 0.6499	824.23	23.4	1.095
293.15 K, x2 = 0.7001	819.03	23.1	1.164
293.15 K, x2 = 0.7499	813.78	22.7	1.256
293.15 K, x2 = 0.8	808.34	22.4	1.378
293.15 K, x2 = 0.8501	802.8	22.1	1.535
293.15 K, x2 = 0.9001	797.15	21.9	1.739
293.15 K, x2 = 0.9499	791.36	21.6	2.013
303.15 K, x2 = 0	874.07	26.2	0.749
303.15 K, x2 = 0.0502	869.6	26	0.737
303.15 K, x2 = 0.1001	865.24	25.7	0.729
303.15 K, x2 = 0.1501	860.87	25.4	0.728
303.15 K, x2 = 0.1998	856.52	25.1	0.725
303.15 K, x2 = 0.2499	852.09	24.8	0.729
303.15 K, x2 = 0.3	847.66	24.5	0.737
303.15 K, x2 = 0.3499	843.17	24.2	0.75
303.15 K, x2 = 0.4001	838.59	23.9	0.76
303.15 K, x2 = 0.4501	833.98	23.6	0.779
303.15 K, x2 = 0.5001	829.29	23.3	0.8
303.15 K, x2 = 0.55	824.54	22.9	0.825
303.15 K, x2 = 0.6	819.65	22.6	0.861
303.15 K, x2 = 0.65	814.69	22.3	0.905
303.15 K, x2 = 0.6999	809.62	22	0.958
303.15 K, x2 = 0.7499	804.47	21.7	1.021
303.15 K, x2 = 0.8001	799.17	21.4	1.108
303.15 K, x2 = 0.85	793.77	21.2	1.214
303.15 K, x2 = 0.8998	788.25	20.9	1.356
303.15 K, x2 = 0.9499	782.59	20.6	1.533
313.15 K, x2 = 0	863.76	25.1	0.658
313.15 K, x2 = 0.05	859.32	24.9	0.645
313.15 K, x2 = 0.1	854.97	24.6	0.639
313.15 K, x2 = 0.1501	850.64	24.3	0.634
313.15 K, x2 = 0.2	846.27	24.1	0.633
313.15 K, x2 = 0.2499	841.92	23.8	0.635
313.15 K, x2 = 0.2997	837.55	23.5	0.638
313.15 K, x2 = 0.3499	833.09	23.2	0.646
313.15 K, x2 = 0.4	828.58	22.9	0.656
313.15 K, x2 = 0.4504	823.98	22.6	0.667
313.15 K, x2 = 0.5001	819.37	22.3	0.682
313.15 K, x2 = 0.55	814.68	22	0.704
313.15 K, x2 = 0.5999	809.9	21.7	0.725
313.15 K, x2 = 0.65	805.04	21.4	0.758
313.15 K, x2 = 0.7001	800.07	21.1	0.796
313.15 K, x2 = 0.7502	794.95	20.8	0.844
313.15 K, x2 = 0.7999	789.8	20.6	0.901
313.15 K, x2 = 0.85	784.49	20.3	0.976
313.15 K, x2 = 0.8998	779.1	20.1	1.069
313.15 K, x2 = 0.9498	773.58	19.8	1.187
323.15 K, x2 = 0	666.8	23.8	0.565
323.15 K, x2 = 0.05	–	23.5	0.562
323.15 K, x2 = 0.0501	667.65	–	–
323.15 K, x2 = 0.1	669.08	23.3	0.558
323.15 K, x2 = 0.15	670.98	–	–
323.15 K, x2 = 0.1501	–	23.1	0.553
323.15 K, x2 = 0.1998	673.08	–	–
323.15 K, x2 = 0.2	–	22.8	0.55
323.15 K, x2 = 0.2499	–	22.6	0.55
323.15 K, x2 = 0.25	675.42	–	–
323.15 K, x2 = 0.2997	–	22.3	0.553
323.15 K, x2 = 0.3	677.99	–	–
323.15 K, x2 = 0.3499	–	22	0.557
323.15 K, x2 = 0.35	680.86	–	–
323.15 K, x2 = 0.4	683.93	21.8	0.563
323.15 K, x2 = 0.4499	687.34	–	–
323.15 K, x2 = 0.4504	–	21.5	0.571
323.15 K, x2 = 0.5	691.07	–	–
323.15 K, x2 = 0.5001	–	21.2	0.582
323.15 K, x2 = 0.5501	695.17	20.9	0.596
323.15 K, x2 = 0.6	699.74	20.7	0.615
323.15 K, x2 = 0.65	704.78	20.4	0.635
323.15 K, x2 = 0.6999	–	20.1	0.661
323.15 K, x2 = 0.7	710.22	–	–
323.15 K, x2 = 0.7499	716.22	–	–
323.15 K, x2 = 0.7502	–	19.9	0.697
323.15 K, x2 = 0.7999	722.88	–	–
323.15 K, x2 = 0.8002	–	19.6	0.739
323.15 K, x2 = 0.85	730.48	–	–
323.15 K, x2 = 0.8501	–	19.4	0.79
323.15 K, x2 = 0.8998	–	19.2	0.85
323.15 K, x2 = 0.9	738.82	–	–
323.15 K, x2 = 0.95	748.16	–	–
323.15 K, x2 = 0.9501	–	19	0.927
